Consider eleven compounds from patent publication US5886007A (priority 1997, dated 1999).

What is called IC50 is the point on the concentration scale where inhibition reaches its midpoint.

Like-named read-outs stand apart in the source and are kept apart here.

One data set has as its target T1, rat brain AChE (Rattus norvegicus, UniProt P37136).
T1 construct: Rat brain homogenate prepared in 10 ml/g 10 mM Tris, pH 7.4, plus 1% Triton X-100 was used as a source of AChE; from tissue; host or cells: rat brain homogenate (10 mM Tris, pH 7.4, 1% Triton X-100)
As to the kind of experiment: biochemical.

The target in a further data set is T2, rat serum BChE (Rattus norvegicus, UniProt Q9JKC1).
T2 construct: rat serum was the source of BChE; from tissue; host or cells: rat serum
T2 sequence (Q9JKC1 24-597): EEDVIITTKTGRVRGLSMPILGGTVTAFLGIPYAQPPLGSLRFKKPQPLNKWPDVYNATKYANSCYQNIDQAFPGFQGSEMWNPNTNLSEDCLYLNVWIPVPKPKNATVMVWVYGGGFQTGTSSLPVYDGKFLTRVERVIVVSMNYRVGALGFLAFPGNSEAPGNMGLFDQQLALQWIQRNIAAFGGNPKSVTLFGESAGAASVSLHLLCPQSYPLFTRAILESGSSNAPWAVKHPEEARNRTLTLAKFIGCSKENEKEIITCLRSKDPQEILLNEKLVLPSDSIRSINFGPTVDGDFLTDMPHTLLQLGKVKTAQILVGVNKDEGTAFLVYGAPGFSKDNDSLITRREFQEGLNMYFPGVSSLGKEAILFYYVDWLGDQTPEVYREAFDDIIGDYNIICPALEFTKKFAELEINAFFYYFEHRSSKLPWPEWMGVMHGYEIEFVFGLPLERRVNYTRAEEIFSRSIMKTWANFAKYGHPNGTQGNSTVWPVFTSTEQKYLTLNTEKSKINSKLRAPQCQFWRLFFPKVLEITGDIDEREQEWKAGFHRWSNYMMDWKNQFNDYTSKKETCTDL
The data set is described as follows: biochemical.

For data set [1] the following is noted: current use of THA limited; cited from earlier work.

T1 sequence (P37136 32-614): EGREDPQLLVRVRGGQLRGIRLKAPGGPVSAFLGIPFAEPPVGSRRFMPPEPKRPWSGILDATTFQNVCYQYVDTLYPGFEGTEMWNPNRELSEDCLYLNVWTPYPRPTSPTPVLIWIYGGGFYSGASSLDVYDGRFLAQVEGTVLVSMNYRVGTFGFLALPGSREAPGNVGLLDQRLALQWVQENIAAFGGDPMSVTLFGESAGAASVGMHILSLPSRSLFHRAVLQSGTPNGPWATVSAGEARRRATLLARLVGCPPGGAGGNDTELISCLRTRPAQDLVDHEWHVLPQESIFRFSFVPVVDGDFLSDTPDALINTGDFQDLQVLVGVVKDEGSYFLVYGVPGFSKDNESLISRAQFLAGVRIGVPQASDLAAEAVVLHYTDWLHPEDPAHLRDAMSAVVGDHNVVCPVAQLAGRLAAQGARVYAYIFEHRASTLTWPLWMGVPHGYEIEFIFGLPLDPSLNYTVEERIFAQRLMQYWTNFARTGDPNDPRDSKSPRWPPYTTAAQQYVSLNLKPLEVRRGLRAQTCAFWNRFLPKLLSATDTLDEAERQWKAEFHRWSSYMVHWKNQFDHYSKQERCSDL

Take `c1ccc2c(NCCCCCCCNc3c4c(nc5ccccc35)CCCC4)c3c(nc2c1)CCCC3` [1a, 1-7-n-Heptylene-bis-9,9'-amino-1,2,3,4-tetrahydroacridine]: at rat brain AChE, the “times more potent than THA in inhibiting rat brain AChE” value is 1000 times.

With `c1ccc2c(NCCCCCCCCNc3c4c(nc5ccccc35)CCCC4)c3c(nc2c1)CCCC3` [1b, 1-8-n-Octylene-bis-9,9'-amino-1,2,3,4-tetrahydroacridine], the values for the IC50 at rat brain AChE and against rat serum BChE were 0.5 nM and 216 nM, respectively. The compound further showed a Selectivity at rat brain AChE of 432.0.

As to `c1ccc2c(NCCCCCCCCCCNc3c4c(nc5ccccc35)CCCC4)c3c(nc2c1)CCCC3` [1d, 1-10-n-Decylene-bis-9,9'-amino-1,2,3,4-tetrahydroacridine], on rat brain AChE, the IC50 stood at 2 nM and the Selectivity is on record as 180.0. Also, half-maximal inhibition against rat serum BChE (IC50) required 360 nM.

For the compound `c1ccc(CCCCNc2c3c(nc4ccccc24)CCCC3)cc1` [2a, (4-Phenyl-butyl)-(1,2,3,4-tetrahydro-acridine-9-yl)-amine], the IC50 at rat brain AChE was found to be 1500 nM.

As to `c1ccc(CCCCCNc2c3c(nc4ccccc24)CCCC3)cc1` [2b, (5-Phenyl-pentyl)-(1,2,3,4-tetrahydro-acridine-9-yl)-amine], at rat brain AChE, the Selectivity was determined as 0.3. Also, the IC50 was 1500 nM at rat brain AChE (pH 7.4, read-out: IC50 rat brain AChE) and 500 nM at rat serum BChE.

`c1ccc(CCCCCCNc2c3c(nc4ccccc24)CCCC3)cc1` [2c, (6-Phenyl-hexyl)-(1,2,3,4-tetrahydro-acridine-9-yl)-amine]: the values for the IC50 against rat brain AChE and against rat serum BChE were 520 nM and 800 nM, respectively. The compound further returned a Selectivity at rat brain AChE of 1.5.

Take `c1ccc(CCCCCCCNc2c3c(nc4ccccc24)CCCC3)cc1` [2d, (7-Phenyl-heptyl)-(1,2,3,4-tetrahydro-acridine-9-yl)-amine]: the results for the IC50 on rat brain AChE and at rat serum BChE (read-out: IC50 rat serum BChE) were 360 nM and 1000 nM, respectively. The Selectivity at rat brain AChE stood at 2.8.

As for `c1ccc(CCCCCCCCNc2c3c(nc4ccccc24)CCCC3)cc1` [2e, (8-Phenyl-octyl)-(1,2,3,4-tetrahydro-acridine-9-yl)-amine], at rat brain AChE, the IC50 is 220 nM; the Selectivity turned out to be 9.1; the “potency of 2e and THA relative to compound 1a against rat brain AChE” value is listed as “weaker”; the “potency ranking within class / chain length dependence of AChE inhibition” value was “the most potent”. For the same compound, the “relative potency of 2e and THA against rat brain AChE” value on rat brain AChE was “nearly equipotent”. For the same compound, it took 2000 nM to reach half-maximal inhibition at rat serum BChE (IC50).

In the case of `c1ccc(CCCCCCCCCNc2c3c(nc4ccccc24)CCCC3)cc1` [2f, (9-Phenyl-nonyl)-(1,2,3,4-tetrahydro-acridine-9-yl)-amine], on rat brain AChE, the IC50 was found to be 3000 nM and the Selectivity is recorded as 3.3. For the same compound, the IC50 against rat serum BChE amounted to 10000 nM.

`c1ccc(CCCCCCCCCCNc2c3c(nc4ccccc24)CCCC3)cc1` [2g, (10-Phenyl-decyl)-(1,2,3,4-tetrahydro-acridine-9-yl)-amine] displayed an IC50 on rat brain AChE of 3000 nM.

Take `Nc1c2c(nc3ccccc13)CCCC2` [THA, 9-amino-1,2,3,4-tetrahydroacridine]: the hepatoxicity entry in data set [1] is given as “serious hepatoxicity”.
